The results in this text go back to patent US5037980A, “Phenyl imidazo[1,2-a]pyrimidines” (American Cyanamid Company, priority 1988, dated 1991).

Assay [1] relates to brain-specific receptors. As to the kind of experiment: Inhibition of the binding of 3H-benzodiazepine to brain-specific receptors of rats. As to conditions: 3H-flunitrazepam, rat whole cortex P2-synaptosomal fraction, pH 7.5, 30 minutes, 0° C.; test compound concentration not given. Further details: species or system rat (Wistar).
Assay [2] has as its system spontaneously hypertensive rats. As to the kind of experiment: Mean arterial blood pressure in spontaneously hypertensive rats. It is filed as in vivo, Okamoto strain). The settings on record: 100 mg/kg by gavage at 0 and 24 hours, measured at 28 hours, 1 rat; average of SHR used 170+1.5 mm of mercury. The procedure:
The novel compounds of the present invention were tested for hypotensive activity by the method of P. S. Chan and D. W. Poorwin, Clin. Exptl. Hypertension, 1 (6): 817 (1979). Male, 16-20 week old, spontaneously hypertensive rats (SHR) of the Okamoto strain, from Taconic Farms, Germantown, New York, having an average mean arterial blood pressure of 170+1.5 mm of mercury are used in the test. One male adult SHR weighing about 300 g is dosed by gavage with a test compound, suspended in 2% pre-boiled starch at a concentration of 50 mg/ml, at a dose of 100 mg/kg of body weight or less, with 0.9% sodium chloride loading at a dose of 25 ml/kg of body weight, at zero hours. A second indentical dose of the test compound, without sodium chloride loading in given 24 hours later. At 28 hours after the initial dose the mean arterial blood pressure is measured by the method of Chan and Poorwin vide supra. The results of this test on representative compounds of the present invention appear below in Table IV.

The subject of assay [3] is clonic seizures caused by pentylenetetrazole in rats. As to the kind of experiment: Protection against clonic seizures caused by pentylenetetrazole in rats. The settings on record: oral or i.p., pentylenetetrazole 23 mg/kg i.v. at 30 or 60 minutes. Type of assay: in vivo, rat. The procedure: The anti-anxiety properties of the novel compounds of the present invention have been established in a test which indicates anxiolytic activity by the measure of protection from convulsions resulting from the administration of pentylenetetrazole. Single or graded dose levels of the test compounds were administered orally or intraperitoneally in a 2% starch vehicle containing 0.5% v/v polyethylene glycol and one drop of polysorbate 80 or distilled water and one drop of polysorbate 80 to groups of at least 4 rats. At 30 or 60 minutes, the rats were treated intravenously with pentylenetetrazole at a dose of 23 mg/kg of body weight. This dose is estimated to cause clonic seizures in 99% of unprotected rats. It has been reported [R. T. Hill and D. H. Tedeschi, "Animal Testing and Screening Procedures in Evaluating Psychotropic Drugs" in "An Introduction to Psychopharmacology", Eds. R. R. Rech and K. E. Moore, Raven Press, New York, pp 237-288 (1971)] that there is a high degree of correlation between antagonism of pentylenetetrazole seizures in rats and anti-anxietyeffects in higher warm-blooded animals.

Assay [4] relates to rats. The assay is described as follows: Non-conditioned passive avoidance test in rats. Type of assay: in vivo, rat (Wistar). Further details: key: Active: considered active if the number of shocks received by the test group is significantly higher than the control group by the Mann-Whitney U test. The settings on record: oral or i.p., 30 or 60 minutes before test. The procedure:
Another test used to assess anti-anxiety effects is a non-conditioned passive avoidance procedure described by J. R. Vogel, B. Beer and D. E. Clody. "A Simple and Reliable Conflict Procedure for Testing Anti-Anxiety Agents", Psychopharmacologia, 21, 1-7 (1971). A conflict situation is induced in rats by a modification of this method.
Groups of 8 naive, Wistar strain male rats weighing 200-240 g each were deprived of water for 48 hours. The test compounds were administered in single or graded, oral or intraperitoneal doses, suspended in distilled water and one drop of polysorbate 80. Control animals received the vehicle alone. At 30 or 60 minutes each rat was placed in an individual clear plexiglass chamber. Tap water was available ad libitum from a nipple located in a black plexiglass box off the main chamber. A 0.7 milliampere AC shocking current was established between the stainless steel grid floor and the tap. After 20 licks of non-shocked drinking, a 2 second shocking current was administered to the rat. This ratio of 20 licks of non-shocked drinking followed by a 2 second shock was continued for a total of 3 minutes. The number of shocks taken by each rat during the 3 minute interval was recorded and compared to a control group.

Turning to `Clc1ccc(-c2ccnc3nccn23)c(Cl)c1` [5-(2,4-Dichlorophenyl)imidazo-[1,2-a]pyrimidine], in assay [1], the “% Inhibition of 3H-benzodiazepine binding” value (“% Inhibition” below) came to 11%. Besides, the “Mean Arterial Blood Pressure” value in assay [2] is 111.

Take `Cc1cc(-c2ccccc2F)n2ccnc2n1` [5-(2-Fluorophenyl)-7-methyl imidazo[1,2-a]pyrimidine]: the “% Inhibition” value in assay [1] was determined as 13%.

`Fc1ccccc1-c1ccnc2nccn12` [5-(2-Fluorophenyl)imidazo[1,2-a]-pyrimidine]: in assay [1], the “% Inhibition” value was 49%. Besides, the “Mean Arterial Blood Pressure” value in assay [2] is recorded as 121.

In the case of `COc1cc(-c2ccnc3nccn23)cc(OC)c1OC` [5-(3,4,5-Trimethoxyphenyl)imidazo-[1,2-a]pyrimidine], the “Mean Arterial Blood Pressure” value in assay [2] is 147. For the same molecule, the “% of Rats Protected” value in assay [3] (dose 25 mg/kg) is listed as 75%.

Consider `Cc1cc(-c2ccc(Cl)c(Cl)c2)n2ccnc2n1` [5-(3,4-Dichlorophenyl)-7-methyl-imidazo-[1,2-a]pyrimidine], for which the “% Inhibition” value in assay [1] worked out at 22%. Also, the “Mean Arterial Blood Pressure” value in assay [2] amounted to 119.

On to `COc1ccc(-c2cc(C)nc3nccn23)cc1OC` [5-(3,4-Dimethoxyphenyl)-7-methyl-imidazo[1,2-a]pyrimidine], for which the “% Inhibition” value in assay [1] was 46%. Besides, in assay [2], the “Mean Arterial Blood Pressure” value is given as 148.

As to `Clc1cccc(-c2ccnc3nccn23)c1` [5-(3-Chlorophenyl)imidazo[1,2-a]-pyrimidine], in assay [1], the “% Inhibition” value stood at 37%. Moreover, in assay [2], the “Mean Arterial Blood Pressure” value is 146. Moreover, the “Result (non-conditioned passive avoidance)” value in assay [4] (dose 25.0 mg/kg) is listed as “Active”. In assay [3] (dose 25 mg/kg), the “% of Rats Protected” value is 50%.

Take `Brc1ccc(-c2ccnc3nccn23)cc1` [5-(4-Bromophenyl)imidazo[1,2-a]-pyrimidine]: the “Mean Arterial Blood Pressure” value in assay [2] was found to be 97.

For `FC(F)(F)c1cccc(-c2ccnc3nccn23)c1` [5-(α,α,α-Trifluoro-m-tolyl)imidazo[1,2-a]pyrimidine], in assay [1], the “% Inhibition” value is 46%. Besides, in assay [2], the “Mean Arterial Blood Pressure” value was found to be 126. Further, in assay [4] (dose 25.0 mg/kg), the “Result (non-conditioned passive avoidance)” value is “Active”. Further, the “% of Rats Protected” value in assay [3] (dose 50 mg/kg) was found to be 100%.

As for `COc1cc(-c2cc(C)nc3nccn23)cc(OC)c1OC` [7-Methyl-5-(3,4,5-trimethoxy-phenyl)imidazo[1,2-a]pyrimidine], the “% Inhibition” value in assay [1] is listed as 10%. For the same molecule, in assay [4] (dose 35.0 mg/kg), the “Result (non-conditioned passive avoidance)” value is “Active”.

`Cc1cc(-c2cccc(C(F)(F)F)c2)n2ccnc2n1` [7-Methyl-5-[3-(trifluoromethyl)phenyl]imidazo[1,2-a]pyrimidine]: the “% Inhibition” value in assay [1] was 42%. The “Mean Arterial Blood Pressure” value in assay [2] amounted to 127.

On to `Cc1cc(-c2ccccc2)n2ccnc2n1` [7-Methyl-5-phenylimidazo[1,2-a]-pyrimidine], for which, in assay [1], the “% Inhibition” value is recorded as 43%.
